From ChEMBL document CHEMBL3885881, “DrugMatrix”

Organism: Rattus norvegicus
Assay: DrugMatrix - Regimen: Daily Repeat
Assay type: toxicity, organism-based, Sprague-Dawley
Parameters: regimen Daily Repeat, gender Male, age 6-8 weeks
Details: in vivo, po, route oral GAVAGE, vehicle .5 % CMC; for ABSOLUTE BASOPHIL / ABSOLUTE EOSINOPHIL / ABSOLUTE LYMPHOCYTE / ABSOLUTE MONOCYTE / ABSOLUTE SEGMENTED NEUTROPHIL / BASOPHIL / EOSINOPHIL / ERYTHROCYTE COUNT / HEMATOCRIT / HEMOGLOBIN / LEUKOCYTE COUNT / LYMPHOCYTE / MEAN CORPUSCULAR HEMOGLOBIN / MEAN CORPUSCULAR HEMOGLOBIN CONCENTRATION / MEAN CORPUSCULAR VOLUME / MONOCYTE / NEUTROPHIL / NUCLEATED RED BLOOD CELLS / PLATELET COUNT: tissue Blood; for ALANINE AMINOTRANSFERASE / ALBUMIN / ALKALINE PHOSPHATASE / ASPARTATE AMINOTRANSFERASE / BLOOD UREA NITROGEN / CARBON DIOXIDE / CHLORIDE / CHOLESTEROL / CREATINE PHOSPHOKINASE / CREATININE / GLUCOSE / LACTATE DEHYDROGENASE / LIPASE / PHOSPHORUS / POTASSIUM / SODIUM / TOTAL BILIRUBIN / TOTAL PROTEIN / URIC ACID: tissue Plasma
[1] = 12 mg/kg, 72 h, dose level Low, time 3 day
[2] = 12 mg/kg, 120 h, dose level Low, time 5 day
[3] = 1200 mg/kg, 72 h, dose level High, time 3 day
[4] = 1200 mg/kg, 120 h, dose level High, time 5 day

Structure (SMILES): CC(=O)OCC(COC(C)=O)OC(C)=O [TRIACETIN]
- ABSOLUTE BASOPHIL [1]: 0 CELLS/uL
- ABSOLUTE EOSINOPHIL [1]: 0 CELLS/uL
- ABSOLUTE LYMPHOCYTE [1]: 13591 CELLS/uL
- ABSOLUTE MONOCYTE [1]: 0 CELLS/uL
- ABSOLUTE SEGMENTED NEUTROPHIL [1]: 1342.33 CELLS/uL
- BASOPHIL [1]: 0%
- EOSINOPHIL [1]: 0%
- ERYTHROCYTE COUNT [1]: 5.57 x10E6/uL
- HEMATOCRIT [1]: 35.43%
- HEMOGLOBIN [1]: 13.97 G/DL
- LEUKOCYTE COUNT [1]: 14.93 x10E3/uL
- LYMPHOCYTE [1]: 91.33%
- MEAN CORPUSCULAR HEMOGLOBIN [1]: 25.13 pg
- MEAN CORPUSCULAR HEMOGLOBIN CONCENTRATION [1]: 39.43 G/DL
- MEAN CORPUSCULAR VOLUME [1]: 63.77 fL
- MONOCYTE [1]: 0%
- NEUTROPHIL [1]: 8.67%
- NUCLEATED RED BLOOD CELLS [1]: 0 /100WBC
- PLATELET COUNT [1]: 1332 x10E3/uL
- ALANINE AMINOTRANSFERASE [1]: 52 u/L
- ALBUMIN [1]: 4.5 G/DL
- ALKALINE PHOSPHATASE [1]: 453.33 u/L
- ASPARTATE AMINOTRANSFERASE [1]: 96.33 u/L
- BLOOD UREA NITROGEN [1]: 14.33 mg/dL
- CARBON DIOXIDE [1]: 21.67 mmol/L
- CHLORIDE [1]: 105 MEQ/L
- CHOLESTEROL [1]: 71.67 mg/dL
- CREATINE PHOSPHOKINASE [1]: 251 u/L
- CREATININE [1]: 0.21 mg/dL
- GLUCOSE [1]: 185 mg/dL
- LACTATE DEHYDROGENASE [1]: 165.33 u/L
- LIPASE [1]: 9.33 u/L
- PHOSPHORUS [1]: 13.93 mg/dL
- POTASSIUM [1]: 6.64 MEQ/L
- SODIUM [1]: 149.57 MEQ/L
- TOTAL BILIRUBIN [1]: 0.17 mg/dL
- TOTAL PROTEIN [1]: 6.2 G/DL
- URIC ACID [1]: 2.07 mg/dL
- ABSOLUTE BASOPHIL [2]: 0 CELLS/uL
- ABSOLUTE EOSINOPHIL [2]: 0 CELLS/uL
- ABSOLUTE LYMPHOCYTE [2]: 15649 CELLS/uL
- ABSOLUTE MONOCYTE [2]: 168.33 CELLS/uL
- ABSOLUTE SEGMENTED NEUTROPHIL [2]: 1016 CELLS/uL
- BASOPHIL [2]: 0%
- EOSINOPHIL [2]: 0%
- ERYTHROCYTE COUNT [2]: 5.29 x10E6/uL
- HEMATOCRIT [2]: 33.97%
- HEMOGLOBIN [2]: 13.27 G/DL
- LEUKOCYTE COUNT [2]: 16.83 x10E3/uL
- LYMPHOCYTE [2]: 93%
- MEAN CORPUSCULAR HEMOGLOBIN [2]: 25.03 pg
- MEAN CORPUSCULAR HEMOGLOBIN CONCENTRATION [2]: 39.07 G/DL
- MEAN CORPUSCULAR VOLUME [2]: 64.17 fL
- MONOCYTE [2]: 1%
- NEUTROPHIL [2]: 6%
- NUCLEATED RED BLOOD CELLS [2]: 0 /100WBC
- PLATELET COUNT [2]: 1422 x10E3/uL
- ALANINE AMINOTRANSFERASE [2]: 45.67 u/L
- ALBUMIN [2]: 4.27 G/DL
- ALKALINE PHOSPHATASE [2]: 402 u/L
- ASPARTATE AMINOTRANSFERASE [2]: 80.33 u/L
- BLOOD UREA NITROGEN [2]: 15 mg/dL
- CARBON DIOXIDE [2]: 24.33 mmol/L
- CHLORIDE [2]: 103.67 MEQ/L
- CHOLESTEROL [2]: 58 mg/dL
- CREATINE PHOSPHOKINASE [2]: 234 u/L
- CREATININE [2]: 0.12 mg/dL
- GLUCOSE [2]: 156 mg/dL
- LACTATE DEHYDROGENASE [2]: 145 u/L
- LIPASE [2]: 8.33 u/L
- PHOSPHORUS [2]: 14.27 mg/dL
- POTASSIUM [2]: 7.19 MEQ/L
- SODIUM [2]: 146.97 MEQ/L
- TOTAL BILIRUBIN [2]: 0.17 mg/dL
- TOTAL PROTEIN [2]: 5.73 G/DL
- URIC ACID [2]: 1.77 mg/dL
- ABSOLUTE BASOPHIL [3]: 0 CELLS/uL
- ABSOLUTE EOSINOPHIL [3]: 0 CELLS/uL
- ABSOLUTE LYMPHOCYTE [3]: 15023 CELLS/uL
- ABSOLUTE MONOCYTE [3]: 340 CELLS/uL
- ABSOLUTE SEGMENTED NEUTROPHIL [3]: 1637 CELLS/uL
- BASOPHIL [3]: 0%
- EOSINOPHIL [3]: 0%
- ERYTHROCYTE COUNT [3]: 5.45 x10E6/uL
- HEMATOCRIT [3]: 35.37%
- HEMOGLOBIN [3]: 13.63 G/DL
- LEUKOCYTE COUNT [3]: 17 x10E3/uL
- LYMPHOCYTE [3]: 88%
- MEAN CORPUSCULAR HEMOGLOBIN [3]: 25 pg
- MEAN CORPUSCULAR HEMOGLOBIN CONCENTRATION [3]: 38.57 G/DL
- MEAN CORPUSCULAR VOLUME [3]: 64.9 fL
- MONOCYTE [3]: 2%
- NEUTROPHIL [3]: 10%
- NUCLEATED RED BLOOD CELLS [3]: 0 /100WBC
- PLATELET COUNT [3]: 1322 x10E3/uL
- ALANINE AMINOTRANSFERASE [3]: 49.33 u/L
- ALBUMIN [3]: 4.13 G/DL
- ALKALINE PHOSPHATASE [3]: 331 u/L
- ASPARTATE AMINOTRANSFERASE [3]: 79.33 u/L
- BLOOD UREA NITROGEN [3]: 14 mg/dL
- CARBON DIOXIDE [3]: 19 mmol/L
- CHLORIDE [3]: 102 MEQ/L
- CHOLESTEROL [3]: 69.67 mg/dL
- CREATINE PHOSPHOKINASE [3]: 229 u/L
- CREATININE [3]: 0.18 mg/dL
- GLUCOSE [3]: 149.33 mg/dL
- LACTATE DEHYDROGENASE [3]: 172.67 u/L
- LIPASE [3]: 10 u/L
- PHOSPHORUS [3]: 14.13 mg/dL
- POTASSIUM [3]: 7.15 MEQ/L
- SODIUM [3]: 145.03 MEQ/L
- TOTAL BILIRUBIN [3]: 0.17 mg/dL
- TOTAL PROTEIN [3]: 5.83 G/DL
- URIC ACID [3]: 1.73 mg/dL
- ABSOLUTE BASOPHIL [4]: 0 CELLS/uL
- ABSOLUTE EOSINOPHIL [4]: 0 CELLS/uL
- ABSOLUTE LYMPHOCYTE [4]: 12251.33 CELLS/uL
- ABSOLUTE MONOCYTE [4]: 0 CELLS/uL
- ABSOLUTE SEGMENTED NEUTROPHIL [4]: 1215.33 CELLS/uL
- BASOPHIL [4]: 0%
- EOSINOPHIL [4]: 0%
- ERYTHROCYTE COUNT [4]: 5.48 x10E6/uL
- HEMATOCRIT [4]: 34.33%
- HEMOGLOBIN [4]: 13.57 G/DL
- LEUKOCYTE COUNT [4]: 13.47 x10E3/uL
- LYMPHOCYTE [4]: 91%
- MEAN CORPUSCULAR HEMOGLOBIN [4]: 24.77 pg
- MEAN CORPUSCULAR HEMOGLOBIN CONCENTRATION [4]: 39.6 G/DL
- MEAN CORPUSCULAR VOLUME [4]: 62.6 fL
- MONOCYTE [4]: 0%
- NEUTROPHIL [4]: 9%
- NUCLEATED RED BLOOD CELLS [4]: 0 /100WBC
- PLATELET COUNT [4]: 1274.67 x10E3/uL
- ALANINE AMINOTRANSFERASE [4]: 49.33 u/L
- ALBUMIN [4]: 4.07 G/DL
- ALKALINE PHOSPHATASE [4]: 315.33 u/L
- ASPARTATE AMINOTRANSFERASE [4]: 87.67 u/L
- BLOOD UREA NITROGEN [4]: 16.67 mg/dL
- CARBON DIOXIDE [4]: 25 mmol/L
- CHLORIDE [4]: 103 MEQ/L
- CHOLESTEROL [4]: 71 mg/dL
- CREATINE PHOSPHOKINASE [4]: 262.67 u/L
- CREATININE [4]: 0.16 mg/dL
- GLUCOSE [4]: 147.33 mg/dL
- LACTATE DEHYDROGENASE [4]: 331 u/L
- LIPASE [4]: 8.33 u/L
- PHOSPHORUS [4]: 13.2 mg/dL
- POTASSIUM [4]: 6.8 MEQ/L
- SODIUM [4]: 145.37 MEQ/L
- TOTAL BILIRUBIN [4]: 0.17 mg/dL
- TOTAL PROTEIN [4]: 6 G/DL
- URIC ACID [4]: 1.37 mg/dL
